According to patent US10793547B2, “Modulator of the cystic fibrosis transmembrane conductance regulator, pharmaceutical compositions, methods of treatment, and process for making the modulator” (Vertex Pharmaceuticals Incorporated, priority 2016, dated 2020):

Experiments:
[1] = target: T1, F508del-CFTR (Homo sapiens, UniProt P13569, DEL508-508); assay: Membrane potential optical (FLIPR) assay for F508del-CFTR modulators in NIH 3T3 cells; type: cell-based; settings: NIH 3T3 cells expressing F508del; assay A1; read-out: CFTRdF508 Cor 3T3 FLIPR 384 CFTRdF508 MP 3T3 770 EC50
T1 construct: expressed in transfected cells
T1 sequence (P13569 with tags, fused parts or gaps DEL508-508): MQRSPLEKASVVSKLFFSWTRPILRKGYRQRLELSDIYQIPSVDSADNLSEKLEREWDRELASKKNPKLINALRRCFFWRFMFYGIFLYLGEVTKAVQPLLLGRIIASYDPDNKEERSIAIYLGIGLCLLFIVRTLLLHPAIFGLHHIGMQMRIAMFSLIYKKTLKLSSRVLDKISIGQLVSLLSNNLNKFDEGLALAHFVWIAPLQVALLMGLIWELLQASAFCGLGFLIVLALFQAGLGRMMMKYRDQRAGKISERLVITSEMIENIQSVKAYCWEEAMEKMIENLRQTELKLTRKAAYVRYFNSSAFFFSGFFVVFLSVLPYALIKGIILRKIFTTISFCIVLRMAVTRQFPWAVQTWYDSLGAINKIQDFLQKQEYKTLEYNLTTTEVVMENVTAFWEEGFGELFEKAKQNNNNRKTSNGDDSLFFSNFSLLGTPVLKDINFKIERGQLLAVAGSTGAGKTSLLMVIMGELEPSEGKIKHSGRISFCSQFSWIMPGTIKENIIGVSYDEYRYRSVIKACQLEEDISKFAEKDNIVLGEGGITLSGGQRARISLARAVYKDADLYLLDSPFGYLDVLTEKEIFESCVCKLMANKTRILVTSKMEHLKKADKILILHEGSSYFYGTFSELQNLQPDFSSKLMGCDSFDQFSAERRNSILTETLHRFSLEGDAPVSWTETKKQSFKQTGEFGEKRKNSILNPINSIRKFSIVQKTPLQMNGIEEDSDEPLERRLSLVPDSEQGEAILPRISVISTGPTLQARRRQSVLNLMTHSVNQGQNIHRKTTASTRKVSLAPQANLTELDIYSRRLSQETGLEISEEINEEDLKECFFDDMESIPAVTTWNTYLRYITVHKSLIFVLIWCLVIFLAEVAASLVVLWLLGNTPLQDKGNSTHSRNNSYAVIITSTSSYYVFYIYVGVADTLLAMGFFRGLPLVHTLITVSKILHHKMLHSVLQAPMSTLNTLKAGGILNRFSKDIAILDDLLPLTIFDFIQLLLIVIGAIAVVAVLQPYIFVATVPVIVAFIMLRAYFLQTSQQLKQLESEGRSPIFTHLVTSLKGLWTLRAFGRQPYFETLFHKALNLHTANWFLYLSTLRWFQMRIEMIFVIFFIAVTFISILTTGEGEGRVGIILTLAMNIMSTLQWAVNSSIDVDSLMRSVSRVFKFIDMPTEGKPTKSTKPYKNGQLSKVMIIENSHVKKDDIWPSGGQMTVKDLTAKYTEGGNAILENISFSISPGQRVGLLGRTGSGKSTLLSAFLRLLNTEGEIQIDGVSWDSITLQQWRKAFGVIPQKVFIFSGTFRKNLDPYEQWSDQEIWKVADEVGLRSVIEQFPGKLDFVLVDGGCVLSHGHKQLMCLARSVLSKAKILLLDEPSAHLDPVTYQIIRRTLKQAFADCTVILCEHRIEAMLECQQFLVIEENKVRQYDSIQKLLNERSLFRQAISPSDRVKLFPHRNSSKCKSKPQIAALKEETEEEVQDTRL
Procedure, shortened: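 NIH3T3 mouse fibroblasts stably expressing F508del, seeded on matrigel and cultured 18-24 h at 37 °C; for correction, cells were cultured with or without compound for 18-24 h. Cells were loaded with voltage-sensing dye, then compound was added in one step with a chloride gradient (chloride replaced by gluconate). Membrane potential was read by fluorescence.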

[2] = target: T2, human PXR (Homo sapiens, UniProt O75469); assay: PXR assay: PXR mediated CYP3A4 induction in DPX-2 cell line; type: cell-based; settings: DPX-2 cells
T2 construct: host or cells: DPX-2 cell line (derived from HepG2)
T2 sequence (O75469 1-434): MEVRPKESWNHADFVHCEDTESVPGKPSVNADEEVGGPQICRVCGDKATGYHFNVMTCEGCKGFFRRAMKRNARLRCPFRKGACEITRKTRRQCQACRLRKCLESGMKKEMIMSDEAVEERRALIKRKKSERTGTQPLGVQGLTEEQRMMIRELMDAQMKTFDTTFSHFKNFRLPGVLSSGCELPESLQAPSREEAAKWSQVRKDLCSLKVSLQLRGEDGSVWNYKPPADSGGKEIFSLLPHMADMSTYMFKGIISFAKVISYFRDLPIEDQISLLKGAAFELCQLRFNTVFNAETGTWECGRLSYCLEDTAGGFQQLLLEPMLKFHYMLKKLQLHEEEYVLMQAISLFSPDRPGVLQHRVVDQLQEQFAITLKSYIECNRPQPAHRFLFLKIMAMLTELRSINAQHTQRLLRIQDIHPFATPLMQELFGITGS
Experimental: D. Experimental Protocol for PXR Assay
The propensity for PXR mediated CYP3A4 induction is assessed using the DPX-2 cell line in vitro. This cell line, which has been licensed from Puracyp Inc. was derived from HepG2 cells and has been stably transfected with genes encoding human PXR as well as a modified luciferase reporter linked to the CYP3A4 promoter region and related distal and proximal enhancers.
The assay is run in 384 well format and each test article is administered in 11 doses ranging from 0.1 to 60 μM. On day 1, DPX-2 cells which have previously been expanded in-house and cryopreserved are thawed and seeded in tissue culture plates. The following day, media is changed and cells are cultured in media containing test article, vehicle control or the positive control compound, the clinically validated CYP3A4 inducer rifampicin. Cells are cultured in the presence of test article for 48 hours and then cell viability is assessed using fluorescence based assay (Cell Titer-Fluor, Promega) with an EnVision Plate Reader (PerkinElmer). Subsequently, CYP3A4 transactivation, which is proportional to luciferase activity, is measured by reading luminescense using the Promega One-Glo reagent system using the same plate reader.
Data processing within the Genedata software package allows reporting of max fold induction compared to vehicle control, an EC50 value for CYP3A4 inducers and an 11 point-dose response curve.

[3] = MDCK-Wild Type permeability, 96 well + 0.1% BSA; type: in vitro ADME; settings: dog, MDCK, A-B direction, read-out: MDCK-Wild Type-Permeability 96 well + 0.1% BSA Papp compound (A-B)
[4] = tested on: Rat hepatocytes; assay: Hepatocyte clearance, rat hepatocytes; type: in vitro ADME; settings: percent unchanged
[5] = Rat IV and PO PK studies; type: in vivo, male Sprague-Dawley rats; settings: for RAT PLASMA-RAW IV-bolus CL_drg: nominal 3.0 mg/kg; for RAT PLASMA-RAW PO % F_drg / AUC(0-inf): nominal 3 mg/kg, PO; for AUC(0-inf): male, Sprague-Dawley, plasma, read-out: RAT PLASMA-RAW PO AUC (0-inf)_drg
Experimental: C. Experimental Protocol for Rat IV and PO PK Studies
The tested compound was administered to male Sprague-Dawley rats as a single nominal intravenous dose of 3.0 mg/kg as a solution in 10% NMP, 10% solution, 15% EtOH, 35% PEG400 and 30% D5W. The tested compound was also administered to male Sprague-Dawley rats at single nominal oral dose of 3 mg/kg as a solution in 5% NMP, 30% PEG400, 10% TPGS, 5% PVP-K30 at 5 mL/kg dose volume. Analyses of plasma and dose preparations were performed using LC/MS/MS.
Plasma concentration-time profiles of the tested compound in Sprague-Dawley rats at scheduled (nominal) sampling times were analyzed by noncompartmental pharmacokinetic methods using PK function within Watson LIMS software, Version 7.4.2 (Thermo Scientific Inc, Waltham, Mass.). AUC values were calculated using the linear trapezoidal rule.

[6] = Metabolism of Compound 1 in vitro and in vivo

SMILES	EC50 [1] [nM]	CYP3A4 Induction-PXR human PXR internal Max % Activity [2] [%]	Papp A→B [3] [×10⁻⁶ cm/s]	Hepatocyte clearance-Rat Rat hepatocytes CL pct_unchanged [4] [%]	RAT PLASMA-RAW IV-bolus CL_drg [5] [mL/min/kg]	RAT PLASMA-RAW PO % F_drg [5] [%]	AUC(0-inf) [5] [ng·h/mL]	metabolite identity [6]
C[C@@H]1CN(c2nc(-n3ccc(OCC(C)(C)C)n3)ccc2C(=O)NS(=O)(=O)c2ccccc2)C(C)(C)C1 [C, reference compound]	120	9	1.5	6	29.2			
Cc1c(S(=O)(=O)NC(=O)c2ccc(-n3ccc(OCC4(C(F)(F)F)CC4)n3)nc2N2C[C@@H](C)CC2(C)C)cnn1C [Compound 9, N-(1,5-dimethylpyrazol-4-yl)sulfonyl-6-[3-[[1-(trifluoromethyl)cyclopropyl]methoxy]pyrazol-1-yl]-2-[(4S)-2,2,4-trimethylpyrrolidin-1-yl]pyridine-3-carboxamide]	420	7	6.1	30	1.7	99	23400	
Cc1c(S(=O)(=O)NC(=O)c2ccc(-n3ccc(OCC(C)(C)C(F)(F)F)n3)nc2N2C[C@@H](C)CC2(C)C)cnn1C [Compound 13, N-(1,5-dimethylpyrazol-4-yl)sulfonyl-6-[3-(3,3,3-trifluoro-2,2-dimethyl-propoxy)pyrazol-1-yl]-2-[(4S)-2,2,4-trimethylpyrrolidin-1-yl]pyridine-3-carboxamide]	130	4	11.7	117	3	65	13400	
Cc1c(S(=O)(=O)NC(=O)c2ccc(-n3ccc(OCCC4(C(F)(F)F)CC4)n3)nc2N2C[C@@H](C)CC2(C)C)cnn1C [Compound 14, N-(1,5-dimethylpyrazol-4-yl)sulfonyl-6-[3-[2-[1-(trifluoromethyl)cyclopropyl]ethoxy]pyrazol-1-yl]-2-[(4S)-2,2,4-trimethylpyrrolidin-1-yl]pyridine-3-carboxamide]	280	2	2.8	50	3.9	61	10500	
Cc1nn(C)cc1S(=O)(=O)NC(=O)c1ccc(-n2ccc(OCCC3(C(F)(F)F)CC3)n2)nc1N1C[C@@H](C)CC1(C)C [Compound 15, N-(1,3-dimethylpyrazol-4-yl)sulfonyl-6-[3-[2-[1-(trifluoromethyl)cyclopropyl]ethoxy]pyrazol-1-yl]-2-[(4S)-2,2,4-trimethylpyrrolidin-1-yl]pyridine-3-carboxamide]	130	3	2.7	97	2.5	66	16300	
Cc1nn(C)cc1S(=O)(=O)NC(=O)c1ccc(-n2ccc(OCC3C(C)(C)C3(C)C)n2)nc1N1C[C@@H](C)CC1(C)C [Compound 20, N-(1,3-dimethylpyrazol-4-yl)sulfonyl-6-[3-[(2,2,3,3-tetramethylcyclopropyl)methoxy]pyrazol-1-yl]-2-[(4S)-2,2,4-trimethylpyrrolidin-1-yl]pyridine-3-carboxamide]	170	4	1.4	13	4.9	21	3000	
Cc1c(S(=O)(=O)NC(=O)c2ccc(-n3ccc(OCC4C(C)(C)C4(C)C)n3)nc2N2C[C@@H](C)CC2(C)C)cnn1C [Compound 21, N-(1,5-dimethylpyrazol-4-yl)sulfonyl-6-[3-[(2,2,3,3-tetramethylcyclopropyl)methoxy]pyrazol-1-yl]-2-[(4S)-2,2,4-trimethylpyrrolidin-1-yl]pyridine-3-carboxamide]	520	1	3	0	6.7	47	3900	
Cc1nn(C)cc1S(=O)(=O)NC(=O)c1ccc(-n2ccc(OCC3C4(CC4)C34CC4)n2)nc1N1C[C@@H](C)CC1(C)C [Compound 28, (S)—N-((1,3-Dimethyl-1H-pyrazol-4-yl)sulfonyl)-6-(3-(dispiro[2.0.2.1]heptan-7-ylmethoxy)-1H-pyrazol-1-yl)-2-(2,2,4-trimethylpyrrolidin-1-yl)nicotinamide]	90	4	2.2	41	1.8	80	7100	
Cc1nn(C)cc1S(=O)(=O)NC(=O)c1ccc(-n2ccc(OCC(C)(C)C(F)(F)F)n2)nc1N1CC(CO)CC1(C)C (centres unmarked) [Compound 30, N-(1,3-dimethylpyrazol-4-yl)sulfonyl-2-[4-(hydroxymethyl)-2,2-dimethyl-pyrrolidin-1-yl]-6-[3-(3,3,3-trifluoro-2,2-dimethyl-propoxy)pyrazol-1-yl]pyridine-3-carboxamide]	950	4	0.6	39				metabolites of Compound 1
Cc1nn(C)cc1S(=O)(=O)N1C(=O)c2ccc(-n3ccc(OCC(C)(C)C(F)(F)F)n3)nc2N2C1[C@@H](C)CC2(C)C (some centres unmarked) [Compound 36, (75)-6-((1,3-dimethyl-1H-pyrazol-4-yl)sulfonyl)-7,9,9-trimethyl-2-(3-(3,3,3-trifluoro-2,2-dimethylpropoxy)-1H-pyrazol-1-yl)-6a,7,8,9-tetrahydropyrido[3,2-e]pyrrolo[1,2-a]pyrimidin-5(6H)-one]								metabolites of Compound 1
C[C@@H]1CN(c2nc(-n3ccc(OCC(C)(C)C(F)(F)F)n3)ccc2C(=O)NS(=O)(=O)c2cn(C)nc2CO)C(C)(C)C1 [Compound 39, N-[3-(hydroxymethyl)-1-methyl-pyrazol-4-yl]sulfonyl-6-[3-(3,3,3-trifluoro-2,2-dimethyl-propoxy)pyrazol-1-yl]-2-[(4S)-2,2,4-trimethylpyrrolidin-1-yl]pyridine-3-carboxamide]	460	1		39				metabolites of Compound 1
C[C@H]1CC(C)(C)N2c3nc(-n4ccc(OCC(C)(C)C(F)(F)F)n4)ccc3C(=O)OC12 (stereo partly drawn) [Compound 57, (7S)-7,9,9-trimethyl-2-(3-(3,3,3-trifluoro-2,2-dimethylpropoxy)-1H-pyrazol-1-yl)-6a,7,8,9-tetrahydro-5H-pyrido[2,3-d]pyrrolo[2,1-b][1,3]oxazin-5-one]	30000	13		35				metabolites of Compound 1
